Measured values as given in patent US20260138978A1, “POSITIVE ALLOSTERIC MODULATORS OF THE MUSCARINIC ACETYLCHOLINE RECEPTOR M1” (Vanderbilt University, priority 2022, published 2026).

Assays:
human mAChRM1 [1] = target: T1, human mAChRM1 (Homo sapiens, UniProt P11229); assay: mAChR M1 cell-based functional assay (calcium mobilization), agonist activity upon compound addition, Emax relative to acetylcholine maximum; settings: calcium mobilization upon compound addition
T1 construct: host or cells: CHO-K1
T1 sequence (P11229 1-460): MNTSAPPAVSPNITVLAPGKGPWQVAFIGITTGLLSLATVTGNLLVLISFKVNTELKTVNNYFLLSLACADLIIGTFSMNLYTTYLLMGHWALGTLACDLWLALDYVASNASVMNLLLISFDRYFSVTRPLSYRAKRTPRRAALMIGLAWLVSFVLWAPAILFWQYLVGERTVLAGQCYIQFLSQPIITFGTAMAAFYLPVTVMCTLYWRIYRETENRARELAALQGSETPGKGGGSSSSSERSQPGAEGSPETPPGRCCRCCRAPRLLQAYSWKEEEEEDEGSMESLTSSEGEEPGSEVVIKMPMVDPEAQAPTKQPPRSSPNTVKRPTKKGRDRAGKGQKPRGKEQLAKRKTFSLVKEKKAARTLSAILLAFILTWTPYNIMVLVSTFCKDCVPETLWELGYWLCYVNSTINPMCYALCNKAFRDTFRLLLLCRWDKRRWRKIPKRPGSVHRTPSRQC
Text: Lack of agonist activity may be measured as weak or no increase in calcium fluorescence in mAChRM1-transfected CHO-K1 cells in the presence of the compound, compared to the response of equivalent CHO-K1 cells in the absence of the compound. Lack of mAChRM1 agonist activity may be determined as a percent response relative to acetylcholine. For example, a disclosed compound may have less than or equal to 30%, 25%, 20%, 15%, 10%, 5%, or 1% mAChRM1 agonist activity relative to acetylcholine. A disclosed compound may have substantially no mAChRM1 agonist activity. […] The absence of mAChRM1 agonist activity may contribute to the avoidance of cholinergic adverse effect liability.
(§1) Chinese hamster ovary (CHO-K1) cells stably expressing rat (r)M1 were purchased from the American Type Culture Collection and cultured according to their indicated protocol. CHO cells stably expressing human (h)M2, hM3, and hM5 were described previously (Levey, et al., 1991); hM1 and hM4 cDNAs were purchased from Missouri S&T cDNA Resource; rM4 cDNA was provided by T. I. Bonner (National Institutes of Health, Bethesda, MD). rM2 and rM3 were cloned from a rat brain cDNA library and sequence verified. hM1, rM2, rM3, hM4, and rM4 cDNAs were used to stably transfect CHO-K1 cells purchased from the American Type Culture Collection using Lipofectamine 2000. To make stable rM2, hM2, rM3, hM4. and rM4 cell lines for use in calcium mobilization assays, these cells also were stably transfected with a chimeric G-protein (Gqi5) (provided by B. R. Conklin, University of California, San Francisco) using Lipofectamine 2000. rM1, hM1, rM3, hM3, rM5, and hM5 cells were grown in Ham's F-12 medium containing 10% heat-inactivated fetal bovine serum (FBS), 20 mM HEPES, and 50 μg/mL G418 sulfate. rM2-Gqi5, hM2-Gqi5, and hM4-Gqi5 cells were grown in the same medium also containing 500 µg/mL Hygromycin B. Stable rM4-Gqi5 cells were grown in DMEM containing 10% heat-inactivated FBS, 20 mM HEPES, 400 μg/mL G418 sulfate, and 500 μg/mL Hygromycin B.
(§2) For high throughput measurement of agonist-evoked increases in intracellular calcium, CHO-K1 cells stably expressing muscarinic receptors were plated in growth medium lacking G418 and hygromycin at 15,000 cells/[…] in Greiner 384-well black-walled, tissue culture (TC)-treated, clear-bottom plates (VWR). Cells were incubated overnight at 37° C. and 5% CO2. The next day, cells were washed using an ELX 405 (BioTek) with four washes (80 μL) of assay buffer then aspirated to 20 μL. Next, 20 μL of 16 μM Fluo-4/acetoxymethyl ester (Invitrogen, Carlsbad, CA) prepared as a 2.3 mM stock in DMSO and mixed in a 1:1 ratio with 10% (w/v) Pluronic F-127 and diluted in assay buffer was added to the wells and the cell plates were incubated for 50 min at 37° C. and 5% CO2. Dye was removed by washing with the ELX 405 (four 80 μL washes of assay buffer) then aspirated to 20 μL. Compound master plates were formatted in an 11 point CR^c format (1:3 dilutions) in 100% DMSO with a starting concentration of 10 mM using the BRAVO liquid handler (Agilent). Test compound CRCs were then transferred to daughter plates (240 nL) using the Echo acoustic plate reformatter (Labcyte, Sunnyvale, CA) and then diluted into assay buffer ([…]) to a 2× stock using a Thermo Fisher Combi (Thermo Fisher Scientific, Waltham, MA).
Calcium flux was measured using the Functional Drug Screening System (FDSS) 6000 (Hamamatsu Corporation, Tokyo, Japan) as an increase in the fluorescent static ratio. Compounds were applied to cells (20 μL, 2×) using the automated system of the FDSS 6000 at 4 s into the 300 s protocol and the data were collected at 1 Hz. […] Agonist activity was analyzed as a concentration-dependent increase in calcium mobilization upon compound addition. Emax values for agonist activity are expressed relative to the maximum for acetylcholine. Positive allosteric modulator activity was analyzed as a concentration-dependent increase in the EC20 acetylcholine response. […]

human mAChRM1 [2] = target: T1, human mAChRM1; assay: mAChR M1 cell-based functional assay (calcium mobilization), positive allosteric modulator activity: increase in the EC20 acetylcholine response; settings: for Emax: PAM mode; for EC50 / PAM Activity Human M1 EC50: increase in the EC20 acetylcholine response; for EC50: read-out: PAM Activity Human M1 EC50
Text: as §1, §2
Calcium flux was measured using the Functional Drug Screening System (FDSS) 6000 (Hamamatsu Corporation, Tokyo, Japan) as an increase in the fluorescent static ratio. Compounds were applied to cells (20 μL, 2×) using the automated system of the FDSS 6000 at 4 s into the 300 s protocol and the data were collected at 1 Hz. […] Agonist activity was analyzed as a concentration-dependent increase in calcium mobilization upon compound addition. Emax values for agonist activity are expressed relative to the maximum for acetylcholine. Positive allosteric modulator activity was analyzed as a concentration-dependent increase in the EC20 acetylcholine response. Antagonist activity was analyzed as a concentration-dependent decrease in the EC80 acetylcholine response. Concentration-response curves were generated using a four-parameter logistical equation in XLfit curve fitting software (IDBS, Bridgewater, NJ) for Excel (Microsoft, Redmond, WA) or Prism (GraphPad Software, Inc., San Diego, CA).
Activity (EC50 and Emax) was determined in the mAChRM1 cell-based functional assay as described above and the data are shown in Table 16. The compound numbers correspond to the compound numbers used in Table 15.

CC(C)(O)c1ccc(-c2cc(F)c(CN3Cc4ncccc4C3=O)c(F)c2)cc1F [Compound 7, 6-((3,3′,5-trifluoro-4′-(2-hydroxypropan-2-yl)-[1,1′-biphenyl]-4-yl)methyl)-6,7-dihydro-5H-pyrrolo[3,4-b]pyridin-5-one]
Agonist Activity Human M1 EC50 (human mAChRM1 [1]): inactive
Emax (human mAChRM1 [2]): 71%
EC50 (human mAChRM1 [2]): 2.67 µM

CC(C)(O)c1ccc(-c2cc(F)c(CN3Cc4ncccc4C3=O)c(F)c2)cc1Cl [Compound 8, 6-((3′-chloro-3,5-difluoro-4′-(2-hydroxypropan-2-yl)-[1,1′-biphenyl]-4-yl)methyl)-6,7-dihydro-5H-pyrrolo[3,4-b]pyridin-5-one]
Agonist Activity Human M1 EC50 (human mAChRM1 [1]): inactive
Emax (human mAChRM1 [2]): 69%
EC50 (human mAChRM1 [2]): 1.98 µM

Cc1cc(-c2ccc(C(C)(C)O)cc2)cc(F)c1CN1Cc2ncccc2C1=O [Compound 9, 6-((3-fluoro-4′-(2-hydroxypropan-2-yl)-5-methyl-[1,1′-biphenyl]-4-yl)methyl)-6,7-dihydro-5H-pyrrolo[3,4-b]pyridin-5-one]
Agonist Activity Human M1 EC50 (human mAChRM1 [1]): inactive
Emax (human mAChRM1 [2]): 76%
EC50 (human mAChRM1 [2]): 1.33 µM

CC(C)(O)c1ccc(-c2cc(F)c(CN3Cc4ncccc4C3=O)c(C3CC3)c2)cc1 [Compound 10, 6-((3-cyclopropyl-5-fluoro-4′-(2-hydroxypropan-2-yl)-[1,1′-biphenyl]-4-yl)methyl)-6,7-dihydro-5H-pyrrolo[3,4-b]pyridin-5-one]
Agonist Activity Human M1 EC50 (human mAChRM1 [1]): inactive
Emax (human mAChRM1 [2]): 83%
EC50 (human mAChRM1 [2]): 0.813 µM

CC(C)(O)c1ccc(-c2ccc(CN3Cc4ncccc4C3=O)cc2)cc1 [Compound 11, 6-((4′-(2-hydroxypropan-2-yl)-[1,1′-biphenyl]-4-yl)methyl)-6,7-dihydro-5H-pyrrolo[3,4-b]pyridin-5-one]
Agonist Activity Human M1 EC50 (human mAChRM1 [1]): inactive
Emax (human mAChRM1 [2]): 65%
EC50 (human mAChRM1 [2]): 6.4 µM

Cc1cc(-c2ccc(C(C)(C)O)cc2)ccc1CN1Cc2ncccc2C1=O [Compound 12, 6-((4′-(2-hydroxypropan-2-yl)-3-methyl-[1,1′-biphenyl]-4-yl)methyl)-6,7-dihydro-5H-pyrrolo[3,4-b]pyridin-5-one]
Agonist Activity Human M1 EC50 (human mAChRM1 [1]): inactive
Emax (human mAChRM1 [2]): 70%
EC50 (human mAChRM1 [2]): 5.94 µM

CC(C)(O)c1ccc(-c2ccc(CN3Cc4ncccc4C3=O)c(F)c2)cc1 [Compound 13, 6-((3-fluoro-4′-(2-hydroxypropan-2-yl)-[1,1′-biphenyl]-4-yl)methyl)-6,7-dihydro-5H-pyrrolo[3,4-b]pyridin-5-one]
Agonist Activity Human M1 EC50 (human mAChRM1 [1]): inactive
Emax (human mAChRM1 [2]): 72%
EC50 (human mAChRM1 [2]): 2.12 µM

CC(C)COc1cc(-c2ccc(C(C)(C)O)cc2)cc(F)c1CN1Cc2ncccc2C1=O [Compound 14, 6-((3-Fluoro-4′-(2-hydroxypropan-2-yl)-5-isobutoxy-[1,1′-biphenyl]-4-yl)methyl)-6,7-dihydro-5H-pyrrolo[3,4-b]pyridin-5-one]
Agonist Activity Human M1 EC50 (human mAChRM1 [1]): inactive
Emax (human mAChRM1 [2]): 76%
EC50 (human mAChRM1 [2]): 2.32 µM

CC(C)(O)c1cc(-c2cc(F)c(CN3Cc4ncccc4C3=O)c(F)c2)cc2c1OCO2 [Compound 17, 6-(2,6-difluoro-4-(7-(2-hydroxypropan-2-yl)benzo[d][1,3]dioxol-5-yl)benzyl)-6,7-dihydro-5H-pyrrolo[3,4-b]pyridin-5-one]
Agonist Activity Human M1 EC50 (human mAChRM1 [1]): inactive
PAM Activity Human M1 EC50 (human mAChRM1 [2]): inactive

Cc1cc(-c2cc3c(c(C(C)(C)O)c2)OCO3)cc(F)c1CN1Cc2ncccc2C1=O [Compound 18, 6-(2-fluoro-4-(7-(2-hydroxypropan-2-yl)benzo[d][1,3]dioxol-5-yl)-6-methylbenzyl)-6,7-dihydro-5H-pyrrolo[3,4-b]pyridin-5-one]
Agonist Activity Human M1 EC50 (human mAChRM1 [1]): inactive
Emax (human mAChRM1 [2]): 49%
EC50 (human mAChRM1 [2]): 6.37 µM

Cn1cc2c(C(C)(C)O)cc(-c3cc(F)c(CN4Cc5ncccc5C4=O)c(F)c3)cc2n1 [Compound 19, 6-(2,6-difluoro-4-(4-(2-hydroxypropan-2-yl)-2-methyl-2H-indazol-6-yl)benzyl)-6,7-dihydro-5H-pyrrolo[3,4-b]pyridin-5-one]
Agonist Activity Human M1 EC50 (human mAChRM1 [1]): inactive
Emax (human mAChRM1 [2]): 50%
EC50 (human mAChRM1 [2]): ≥ 10 µM

Cc1cc(-c2cc(C(C)(C)O)c3cn(C)nc3c2)cc(F)c1CN1Cc2ncccc2C1=O [Compound 20, 6-(2-fluoro-4-(4-(2-hydroxypropan-2-yl)-2-methyl-2H-indazol-6-yl)-6-methylbenzyl)-6,7-dihydro-5H-pyrrolo[3,4-b]pyridin-5-one]
Agonist Activity Human M1 EC50 (human mAChRM1 [1]): inactive
Emax (human mAChRM1 [2]): 47%
EC50 (human mAChRM1 [2]): ≥ 10 µM

Cn1cc2c(C(C)(C)O)cc(-c3ccc(CN4Cc5ncccc5C4=O)c(F)c3)cc2n1 [Compound 21, 6-(2-fluoro-4-(4-(2-hydroxypropan-2-yl)-2-methyl-2H-indazol-6-yl)benzyl)-6,7-dihydro-5H-pyrrolo[3,4-b]pyridin-5-one]
Agonist Activity Human M1 EC50 (human mAChRM1 [1]): inactive
Emax (human mAChRM1 [2]): 50%
EC50 (human mAChRM1 [2]): ≥ 10 µM

Cc1cc(-c2cc(C(C)(C)O)c3cn(C)nc3c2)ccc1CN1Cc2ncccc2C1=O [Compound 22, 6-(4-(4-(2-hydroxypropan-2-yl)-2-methyl-2H-indazol-6-yl)-2-methylbenzyl)-6,7-dihydro-5H-pyrrolo[3,4-b]pyridin-5-one]
Agonist Activity Human M1 EC50 (human mAChRM1 [1]): inactive
PAM Activity Human M1 EC50 (human mAChRM1 [2]): inactive

Cn1cc2c(C(C)(C)O)cc(-c3ccc(CN4Cc5ncccc5C4=O)cc3)cc2n1 [Compound 23, 6-(4-(4-(2-hydroxypropan-2-yl)-2-methyl-2H-indazol-6-yl)benzyl)-6,7-dihydro-5H-pyrrolo[3,4-b]pyridin-5-one]
Agonist Activity Human M1 EC50 (human mAChRM1 [1]): inactive
Emax (human mAChRM1 [2]): 48%
EC50 (human mAChRM1 [2]): ≥ 10 µM
